Assay results taken from PubChem BioAssay AID1918931 (Molecular Pharmacology Branch, DTP, NCI, 2023).

System: 138582-337-R-J1-PDC complex spheroid viability
Assay: Anticancer human tumor 138582-337-R-J1-PDC patient-derived Merkel cell tumor cell line growth inhibition
Conditions: for IC50: curve of first compound; for viability, T/C: stronger effect = lower value
Outline: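 Drug combinations with the LSD1 inhibitor iadademstat tested on tumor cells co-cultured as spheroids with endothelial cells and mesenchymal stem cells. Concentrations descended in half-log increments from clinical Cmax or 10 microM.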

[1] = second compound 0.1 µM, first compound 0.00949 µM
[2] = second compound 0.1 µM, first compound 0.03 µM
[3] = second compound 0.1 µM, first compound 0.0949 µM
[4] = second compound 0.1 µM, first compound 0.3 µM
[5] = second compound 0.1 µM, first compound 0.949 µM
[6] = second compound 0.1 µM, first compound 3 µM
[7] = second compound 0.316 µM, first compound 0.00949 µM
[8] = second compound 0.316 µM, first compound 0.03 µM
[9] = second compound 0.316 µM, first compound 0.0949 µM
[10] = second compound 0.316 µM, first compound 0.3 µM
[11] = second compound 0.316 µM, first compound 0.949 µM
[12] = second compound 0.316 µM, first compound 3 µM
[13] = second compound 1 µM, first compound 0.00949 µM
[14] = second compound 1 µM, first compound 0.03 µM
[15] = second compound 1 µM, first compound 0.0949 µM
[16] = second compound 1 µM, first compound 0.3 µM
[17] = second compound 1 µM, first compound 0.949 µM
[18] = second compound 1 µM, first compound 3 µM
[19] = second compound 3.16 µM, first compound 0.00949 µM
[20] = second compound 3.16 µM, first compound 0.03 µM
[21] = second compound 3.16 µM, first compound 0.0949 µM
[22] = second compound 3.16 µM, first compound 0.3 µM
[23] = second compound 3.16 µM, first compound 0.949 µM
[24] = second compound 3.16 µM, first compound 3 µM
[25] = second compound 10 µM, first compound 0.00949 µM
[26] = second compound 10 µM, first compound 0.03 µM
[27] = second compound 10 µM, first compound 0.0949 µM
[28] = second compound 10 µM, first compound 0.3 µM
[29] = second compound 10 µM, first compound 0.949 µM
[30] = second compound 10 µM, first compound 3 µM
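Also: spheroids exposed to agents for 7 days.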
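For viability, T/C in this document: 100% = DMSO vehicle control viability.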

## Cn1ncnc1C1c2n[nH]c(=O)c3cc(F)cc(c23)NC1c1ccc(F)cc1 (stereo not given) + NC1CC1c1ccc(-c2cccc(O)c2)cc1
Second compound 0.1 µM
  IC50: > 100 nM
Second compound 0.316 µM
  IC50: > 100 nM
Second compound 1 µM
  IC50: > 100 nM
Second compound 3.16 µM
  IC50: > 100 nM
Second compound 10 µM
  IC50: > 100 nM
Second compound 0.1 µM, first compound 0.000316 µM
  viability, T/C: 88.1%
Second compound 0.1 µM, first compound 0.001 µM
  viability, T/C: 80.2%
Second compound 0.1 µM, first compound 0.00316 µM
  viability, T/C: 83.3%
Second compound 0.1 µM, first compound 0.01 µM
  viability, T/C: 69.9%
Second compound 0.1 µM, first compound 0.0316 µM
  viability, T/C: 62.3%
Second compound 0.1 µM, first compound 0.1 µM
  viability, T/C: 67.3%
Second compound 0.316 µM, first compound 0.000316 µM
  viability, T/C: 72.5%
Second compound 0.316 µM, first compound 0.001 µM
  viability, T/C: 88.3%
Second compound 0.316 µM, first compound 0.00316 µM
  viability, T/C: 74.2%
Second compound 0.316 µM, first compound 0.01 µM
  viability, T/C: 71%
Second compound 0.316 µM, first compound 0.0316 µM
  viability, T/C: 66%
Second compound 0.316 µM, first compound 0.1 µM
  viability, T/C: 70.7%
Second compound 1 µM, first compound 0.000316 µM
  viability, T/C: 79.8%
Second compound 1 µM, first compound 0.001 µM
  viability, T/C: 83.7%
Second compound 1 µM, first compound 0.00316 µM
  viability, T/C: 73%
Second compound 1 µM, first compound 0.01 µM
  viability, T/C: 86.2%
Second compound 1 µM, first compound 0.0316 µM
  viability, T/C: 82.2%
Second compound 1 µM, first compound 0.1 µM
  viability, T/C: 77%
Second compound 3.16 µM, first compound 0.000316 µM
  viability, T/C: 80.4%
Second compound 3.16 µM, first compound 0.001 µM
  viability, T/C: 91.3%
Second compound 3.16 µM, first compound 0.00316 µM
  viability, T/C: 82.5%
Second compound 3.16 µM, first compound 0.01 µM
  viability, T/C: 81.1%
Second compound 3.16 µM, first compound 0.0316 µM
  viability, T/C: 72.1%
Second compound 3.16 µM, first compound 0.1 µM
  viability, T/C: 77.5%
Second compound 10 µM, first compound 0.000316 µM
  viability, T/C: 99%
Second compound 10 µM, first compound 0.001 µM
  viability, T/C: 96.1%
Second compound 10 µM, first compound 0.00316 µM
  viability, T/C: 100%
Second compound 10 µM, first compound 0.01 µM
  viability, T/C: 84.3%
Second compound 10 µM, first compound 0.0316 µM
  viability, T/C: 82.7%
Second compound 10 µM, first compound 0.1 µM
  viability, T/C: 81.2%

## NS(=O)(=O)OCC1CC(n2ccc3c(NC4CCc5ccccc54)ncnc32)CC1O (stereo not given) + NC1CC1c1ccc(-c2cccc(O)c2)cc1
Second compound 0.1 µM
  IC50: 78.9 nM
Second compound 0.316 µM
  IC50: 73.7 nM
Second compound 1 µM
  IC50: 72.6 nM
Second compound 3.16 µM
  IC50: 100 nM
Second compound 10 µM
  IC50: 141 nM
[1]
  viability, T/C: 83.6%
[2]
  viability, T/C: 63.1%
[3]
  viability, T/C: 48.4%
[4]
  viability, T/C: 34.3%
[5]
  viability, T/C: 15.5%
[6]
  viability, T/C: 15%
[7]
  viability, T/C: 72.6%
[8]
  viability, T/C: 59%
[9]
  viability, T/C: 48.4%
[10]
  viability, T/C: 34.3%
[11]
  viability, T/C: 24.2%
[12]
  viability, T/C: 15.6%
[13]
  viability, T/C: 82.2%
[14]
  viability, T/C: 56.3%
[15]
  viability, T/C: 50.3%
[16]
  viability, T/C: 35.8%
[17]
  viability, T/C: 15.6%
[18]
  viability, T/C: 14.6%
[19]
  viability, T/C: 86.2%
[20]
  viability, T/C: 63.7%
[21]
  viability, T/C: 51.7%
[22]
  viability, T/C: 40.7%
[23]
  viability, T/C: 17.4%
[24]
  viability, T/C: 14%
[25]
  viability, T/C: 103%
[26]
  viability, T/C: 68.1%
[27]
  viability, T/C: 65.6%
[28]
  viability, T/C: 37.1%
[29]
  viability, T/C: 20.4%
[30]
  viability, T/C: 16.1%

## O=C(C=Cc1cccc(S(=O)(=O)Nc2ccccc2)c1)NO + NC1CC1c1ccc(-c2cccc(O)c2)cc1
Second compound 0.1 µM
  IC50: 90.7 nM
Second compound 0.316 µM
  IC50: 74.9 nM
Second compound 1 µM
  IC50: < 9.49 nM
Second compound 3.16 µM
  IC50: 64.8 nM
Second compound 10 µM
  IC50: 113 nM
[1]
  viability, T/C: 67.6%
[2]
  viability, T/C: 64.1%
[3]
  viability, T/C: 49.6%
[4]
  viability, T/C: 36.1%
[5]
  viability, T/C: 0.36%
[6]
  viability, T/C: 69.3%
[7]
  viability, T/C: 58%
[8]
  viability, T/C: 53.2%
[9]
  viability, T/C: 48.6%
[10]
  viability, T/C: 21.1%
[11]
  viability, T/C: 0.35%
[12]
  viability, T/C: 59.1%
[13]
  viability, T/C: 44.8%
[14]
  viability, T/C: 51%
[15]
  viability, T/C: 49.6%
[16]
  viability, T/C: 25%
[17]
  viability, T/C: 0.46%
[18]
  viability, T/C: 49.2%
[19]
  viability, T/C: 49.9%
[20]
  viability, T/C: 63.3%
[21]
  viability, T/C: 45.2%
[22]
  viability, T/C: 25.6%
[23]
  viability, T/C: 0.37%
[24]
  viability, T/C: 30.9%
[25]
  viability, T/C: 66.8%
[26]
  viability, T/C: 57.6%
[27]
  viability, T/C: 53.6%
[28]
  viability, T/C: 29.8%
[29]
  viability, T/C: 0.44%
[30]
  viability, T/C: 41.2%
